Reference: the supplement of paper PMC10307832

Key:
Assay in all cases: relative viability (nuclei count vs DMSO), 5 days (fraction); higher = more cells survive
[1] = compound: Nc1ccn([C@@H]2O[C@H](CO)[C@@H](O)C2(F)F)c(=O)n1 [Gemcitabine] + CC(=O)c1c(C)c2cnc(Nc3ccc(N4CCNCC4)cn3)nc2n(C2CCCC2)c1=O [Palbociclib] (partner 0.5 µM)
How it was run: (§1)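 Lung cancer cell lines were seeded in 1536-well plates and dosed by pin tool the next day, with either a single drug or a fixed anchor-drug dose combined with five library-drug doses (not always all listed) spaced in √10 steps. Five days later, one step fixed the cells and stained their nuclei (final 0.05% Triton X-100, 1% formaldehyde, 1 ug/ml Hoechst), and nuclei were counted on 4× images. Relative viability is the nuclei count in treated wells divided by the count in vehicle wells, and each value is the median of duplicate plates.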

[2] = compound: Nc1ccn([C@@H]2O[C@H](CO)[C@@H](O)C2(F)F)c(=O)n1 [Gemcitabine] + N=C(N)NC(=N)NCCc1ccccc1 [Phenformin] (partner 250 µM)
How it was run: as §1

[3] = compound: Nc1ccn([C@@H]2O[C@H](CO)[C@@H](O)C2(F)F)c(=O)n1 [Gemcitabine] + Nc1ncn([C@H]2C[C@H](O)[C@@H](CO)O2)c(=O)n1 [Decitabine] (partner 2 µM)
How it was run: as §1

[4] = compound: Nc1ccn([C@@H]2O[C@H](CO)[C@@H](O)C2(F)F)c(=O)n1 [Gemcitabine] + CS(=O)(=O)N1CCN(Cc2cc3nc(-c4cccc5[nH]ncc45)nc(N4CCOCC4)c3s2)CC1 [Pictilisib] (partner 1 µM)
How it was run: as §1

Row | Cell Line | relative viability ([1]; first compound 0.001 µM) | relative viability ([1]; first compound 0.003162 µM) | relative viability ([1]; first compound 0.01 µM) | relative viability ([1]; first compound 0.03162 µM) | relative viability ([1]; first compound 0.1 µM) | relative viability ([2]; first compound 0.001 µM) | relative viability ([2]; first compound 0.003162 µM) | relative viability ([2]; first compound 0.01 µM) | relative viability ([2]; first compound 0.03162 µM) | relative viability ([2]; first compound 0.1 µM) | relative viability ([3]; first compound 0.001 µM) | relative viability ([3]; first compound 0.003162 µM) | relative viability ([3]; first compound 0.01 µM) | relative viability ([3]; first compound 0.03162 µM) | relative viability ([3]; first compound 0.1 µM) | relative viability ([4]; first compound 0.001 µM) | relative viability ([4]; first compound 0.003162 µM) | relative viability ([4]; first compound 0.01 µM) | relative viability ([4]; first compound 0.03162 µM) | relative viability ([4]; first compound 0.1 µM)
1 | NCI-H2087 | 0.266 | 0.197 | 0.193 | 0.165 | 0.136 | 0.455 | 0.231 | 0.149 | 0.108 | 0.113 | 0.283 | 0.307 | 0.179 | 0.086 | 0.0869 | 0.73 | 0.662 | 0.386 | 0.193 | 0.199
2 | NCI-H2228 | 0.734 | 0.229 | 0.142 | 0.135 | 0.106 | 0.304 | 0.168 | 0.126 | 0.111 | 0.0895 | – | – | – | – | – | 0.375 | 0.417 | 0.294 | 0.236 | 0.123
3 | NCI-H727 | 0.674 | 0.592 | 0.574 | 0.597 | 0.503 | 0.46 | 0.448 | 0.348 | 0.419 | 0.322 | 0.846 | 0.477 | 0.569 | 0.451 | 0.47 | 0.552 | 0.459 | 0.304 | 0.216 | 0.211
4 | NCI-H650 | 0.221 | 0.189 | 0.136 | 0.123 | 0.146 | 0.387 | 0.255 | 0.202 | 0.158 | 0.168 | 0.243 | 0.237 | 0.164 | 0.175 | 0.153 | 0.918 | 0.502 | 0.246 | 0.166 | 0.166
5 | NCI-H520 | 0.237 | 0.23 | 0.174 | 0.164 | 0.146 | 0.536 | 0.554 | 0.225 | 0.163 | 0.154 | 0.525 | 0.48 | 0.289 | 0.189 | 0.198 | 0.333 | 0.321 | 0.254 | 0.199 | 0.161
6 | EBC-1 | – | – | – | – | – | – | – | – | – | – | – | – | – | – | – | 0.355 | 0.237 | 0.15 | 0.151 | 0.143
7 | NCI-H661 | 0.394 | 0.409 | 0.411 | 0.241 | 0.237 | 0.282 | 0.263 | 0.231 | 0.197 | 0.226 | 0.569 | 0.582 | 0.465 | 0.346 | 0.237 | 0.352 | 0.388 | 0.288 | 0.224 | 0.242
8 | NCI-H1299 | – | – | – | – | – | – | – | – | – | – | – | – | – | – | – | 0.637 | 0.728 | 0.709 | 0.883 | 0.655
9 | LK-2 | 0.798 | 0.696 | 0.403 | 0.119 | 0.126 | 0.834 | 0.43 | 0.313 | 0.142 | 0.142 | 0.242 | 0.23 | 0.204 | 0.109 | 0.128 | 0.527 | – | 0.419 | 0.271 | 0.288
10 | NCI-H1993 | 0.656 | 0.575 | 0.524 | 0.443 | 0.379 | 0.461 | 0.485 | 0.439 | 0.421 | 0.407 | 0.549 | 0.524 | 0.564 | 0.44 | 0.356 | 0.855 | 0.804 | 0.651 | 0.695 | 0.647
11 | NCI-H838 | 0.228 | 0.244 | 0.237 | 0.199 | 0.125 | 0.634 | 0.675 | 0.521 | 0.19 | 0.0985 | 0.442 | 0.485 | 0.365 | 0.281 | 0.187 | 0.476 | 0.501 | 0.468 | 0.346 | 0.141
12 | NCI-H1437 | 0.317 | 0.351 | 0.331 | 0.225 | 0.171 | 0.313 | 0.213 | 0.193 | 0.17 | 0.112 | 0.572 | 0.553 | 0.515 | 0.364 | 0.269 | 0.409 | 0.457 | 0.258 | 0.118 | 0.0772
13 | NCI-H2170 | 0.408 | 0.394 | 0.266 | 0.184 | 0.13 | 0.426 | 0.424 | 0.363 | 0.196 | 0.144 | 0.457 | 0.455 | 0.349 | 0.201 | 0.126 | 0.318 | 0.359 | 0.215 | 0.157 | 0.156
14 | SW 900 | 0.551 | 0.562 | 0.286 | 0.176 | 0.186 | 0.654 | 0.181 | 0.0793 | 0.0687 | 0.0927 | 0.325 | 0.372 | 0.267 | 0.148 | 0.169 | – | – | – | – | –
15 | NCI-H522 | 0.885 | 0.729 | 0.528 | 0.394 | 0.364 | 0.653 | 0.524 | 0.47 | 0.396 | 0.384 | 0.653 | 0.577 | 0.502 | 0.352 | 0.342 | – | – | – | – | –
16 | NCI-H596 | – | – | – | – | – | 0.74 | 0.612 | 0.489 | 0.262 | 0.306 | 1.15 | 0.973 | 0.763 | 0.449 | 0.466 | 0.369 | 0.436 | 0.438 | 0.335 | 0.293
17 | IA-LM | – | – | – | – | – | – | – | – | – | – | – | – | – | – | – | 0.336 | 0.332 | 0.219 | 0.1 | 0.0556
18 | NCI-H1563 | – | – | – | – | – | 0.66 | 0.605 | 0.53 | 0.494 | 0.497 | – | – | – | – | – | 0.599 | 0.669 | 0.652 | 0.634 | 0.506
19 | NCI-H2342 | 0.484 | 0.527 | 0.46 | 0.433 | 0.393 | 0.477 | 0.426 | 0.539 | 0.281 | 0.315 | 0.694 | 0.65 | 0.532 | 0.537 | 0.337 | – | – | – | – | –
20 | CAL-12T | 0.628 | 0.48 | 0.292 | 0.161 | 0.16 | 0.587 | 0.335 | 0.437 | 0.226 | 0.122 | – | – | – | – | – | 0.289 | 0.393 | 0.359 | 0.267 | 0.242
